Results on 28 compounds are retold here after ChEMBL document CHEMBL3102750 (J Med Chem, 2013).

Assay type in all cases: functional, cell-based
The target in assay [1] is T1, Muscarinic acetylcholine receptor M5 (Homo sapiens, UniProt P08912).
T1 sequence (P08912 whole entry): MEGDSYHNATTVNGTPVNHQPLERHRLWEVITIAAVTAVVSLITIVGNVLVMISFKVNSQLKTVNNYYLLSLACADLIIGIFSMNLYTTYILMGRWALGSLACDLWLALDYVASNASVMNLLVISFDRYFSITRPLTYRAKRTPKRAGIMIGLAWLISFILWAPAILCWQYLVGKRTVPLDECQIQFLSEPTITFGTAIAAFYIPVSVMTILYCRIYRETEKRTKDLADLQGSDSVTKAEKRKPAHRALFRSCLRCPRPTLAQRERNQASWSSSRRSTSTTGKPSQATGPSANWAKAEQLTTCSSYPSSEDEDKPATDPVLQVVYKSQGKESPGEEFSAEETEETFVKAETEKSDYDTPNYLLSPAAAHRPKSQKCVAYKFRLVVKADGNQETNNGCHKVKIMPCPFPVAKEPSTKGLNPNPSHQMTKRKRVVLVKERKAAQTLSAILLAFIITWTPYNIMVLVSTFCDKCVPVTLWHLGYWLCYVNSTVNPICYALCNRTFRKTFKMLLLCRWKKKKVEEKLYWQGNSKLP
Put plainly: Negative allosteric modulation of human muscarinic acetylcholine receptor M5 expressed in CHO cells assessed as inhibition of acetylcholine-induced calcium mobilization incubated for 150 secs prior to acetylcholine induction by Fluo-4 AM staining-based fluorescence assay.

Assay [2] concerns the target T2, Muscarinic acetylcholine receptor M5 (Homo sapiens) (UniProt P08912).
T2 sequence (whole entry): T1 sequence (P08912 whole entry)
Put plainly: Negative allosteric modulation of human muscarinic acetylcholine receptor M5 expressed in CHO cells assessed as reduction of acetylcholine-induced calcium mobilization at 10 uM incubated for 150 secs prior to acetylcholine induction by Fluo-4 AM staining-based fluorescence assay relative to control. More on the design: scale not given: the % may be the effect or the level left.

For assay [3], the target named is T3, Muscarinic acetylcholine receptor M5 (Rattus norvegicus, UniProt P08911).
T3 sequence (P08911 whole entry): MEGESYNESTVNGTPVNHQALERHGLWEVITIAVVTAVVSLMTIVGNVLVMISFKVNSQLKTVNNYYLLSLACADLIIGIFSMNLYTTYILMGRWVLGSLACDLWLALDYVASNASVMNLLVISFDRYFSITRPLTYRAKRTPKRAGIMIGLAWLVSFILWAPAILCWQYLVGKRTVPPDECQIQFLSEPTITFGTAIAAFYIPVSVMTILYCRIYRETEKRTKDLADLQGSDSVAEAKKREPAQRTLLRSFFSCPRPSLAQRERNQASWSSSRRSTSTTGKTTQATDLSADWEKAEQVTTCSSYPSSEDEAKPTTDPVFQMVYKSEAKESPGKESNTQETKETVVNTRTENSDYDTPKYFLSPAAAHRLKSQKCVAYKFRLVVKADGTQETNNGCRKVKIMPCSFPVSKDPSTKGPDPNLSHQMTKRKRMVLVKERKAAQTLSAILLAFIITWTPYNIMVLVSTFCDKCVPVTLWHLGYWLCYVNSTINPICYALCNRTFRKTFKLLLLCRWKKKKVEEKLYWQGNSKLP
In words: Negative allosteric modulation of rat muscarinic acetylcholine receptor M5 expressed in CHO cells assessed as inhibition of acetylcholine-induced calcium mobilization incubated for 150 secs prior to acetylcholine induction by Fluo-4 AM staining-based fluorescence assay. (A change in cytosolic calcium serves as a functional read-out for many receptors and channels.)

Assay [4] addresses T4, Muscarinic acetylcholine receptor M1 (Homo sapiens, UniProt P11229).
T4 sequence (P11229 whole entry): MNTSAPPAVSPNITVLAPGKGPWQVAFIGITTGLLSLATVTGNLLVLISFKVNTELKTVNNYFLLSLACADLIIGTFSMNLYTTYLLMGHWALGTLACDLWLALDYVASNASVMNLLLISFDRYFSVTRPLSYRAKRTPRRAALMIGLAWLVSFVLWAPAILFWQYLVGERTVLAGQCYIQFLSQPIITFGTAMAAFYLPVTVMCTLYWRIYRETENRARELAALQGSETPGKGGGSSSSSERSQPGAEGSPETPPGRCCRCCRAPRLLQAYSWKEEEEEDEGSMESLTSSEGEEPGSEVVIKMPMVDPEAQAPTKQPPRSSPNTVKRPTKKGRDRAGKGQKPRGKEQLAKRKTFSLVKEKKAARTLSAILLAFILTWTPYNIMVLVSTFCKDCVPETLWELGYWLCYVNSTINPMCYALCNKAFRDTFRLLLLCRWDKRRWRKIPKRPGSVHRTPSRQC
In words: Negative allosteric modulation of human muscarinic acetylcholine receptor M1 expressed in CHO cells assessed as inhibition of acetylcholine-induced calcium mobilization incubated for 150 secs prior to acetylcholine induction by Fluo-4 AM staining-based fluorescence assay.

Assay [5] addresses T5, Muscarinic acetylcholine receptor M2 (Homo sapiens, UniProt P08172).
T5 sequence (P08172 whole entry): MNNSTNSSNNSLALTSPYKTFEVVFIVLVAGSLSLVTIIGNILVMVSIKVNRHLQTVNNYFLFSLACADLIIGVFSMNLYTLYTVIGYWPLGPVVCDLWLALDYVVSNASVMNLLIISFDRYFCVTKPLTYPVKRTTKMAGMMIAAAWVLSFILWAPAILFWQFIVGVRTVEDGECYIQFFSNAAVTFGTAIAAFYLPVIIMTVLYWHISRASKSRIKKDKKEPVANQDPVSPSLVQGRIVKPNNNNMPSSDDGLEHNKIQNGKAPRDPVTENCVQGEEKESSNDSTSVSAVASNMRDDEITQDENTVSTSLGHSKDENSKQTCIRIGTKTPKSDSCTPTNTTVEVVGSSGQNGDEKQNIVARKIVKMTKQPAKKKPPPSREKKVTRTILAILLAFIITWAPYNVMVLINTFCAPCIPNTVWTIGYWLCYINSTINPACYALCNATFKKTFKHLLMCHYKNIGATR
Put plainly: Negative allosteric modulation of human muscarinic acetylcholine receptor M2 expressed in CHO cells assessed as inhibition of acetylcholine-induced calcium mobilization incubated for 150 secs prior to acetylcholine induction by Fluo-4 AM staining-based fluorescence assay.

Assay [6] concerns the target Muscarinic acetylcholine receptor M3 (Homo sapiens, UniProt P20309). In words: Negative allosteric modulation of human muscarinic acetylcholine receptor M3 expressed in CHO cells assessed as inhibition of acetylcholine-induced calcium mobilization incubated for 150 secs prior to acetylcholine induction by Fluo-4 AM staining-based fluorescence assay.
In assay [7] the target is T6, Muscarinic acetylcholine receptor M4 (Homo sapiens, UniProt P08173).
T6 sequence (P08173 whole entry): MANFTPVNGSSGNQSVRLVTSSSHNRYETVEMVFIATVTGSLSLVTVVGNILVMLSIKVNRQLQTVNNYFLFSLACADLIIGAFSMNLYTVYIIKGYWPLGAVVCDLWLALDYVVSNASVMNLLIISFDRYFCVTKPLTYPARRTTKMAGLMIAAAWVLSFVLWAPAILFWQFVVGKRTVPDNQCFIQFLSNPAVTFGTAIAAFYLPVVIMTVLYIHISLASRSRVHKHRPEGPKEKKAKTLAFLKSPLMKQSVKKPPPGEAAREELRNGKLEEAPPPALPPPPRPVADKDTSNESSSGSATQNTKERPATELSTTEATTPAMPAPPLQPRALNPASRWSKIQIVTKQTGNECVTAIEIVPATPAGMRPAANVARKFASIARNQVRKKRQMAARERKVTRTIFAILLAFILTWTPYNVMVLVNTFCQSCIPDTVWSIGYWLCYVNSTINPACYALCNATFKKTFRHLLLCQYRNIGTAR
Put plainly: Negative allosteric modulation of human muscarinic acetylcholine receptor M4 expressed in CHO cells assessed as inhibition of acetylcholine-induced calcium mobilization incubated for 150 secs prior to acetylcholine induction by Fluo-4 AM staining-based fluorescence assay.

pIC50: −log10 of the molar value.

Sequence of Muscarinic acetylcholine receptor M3 (P20309 whole entry): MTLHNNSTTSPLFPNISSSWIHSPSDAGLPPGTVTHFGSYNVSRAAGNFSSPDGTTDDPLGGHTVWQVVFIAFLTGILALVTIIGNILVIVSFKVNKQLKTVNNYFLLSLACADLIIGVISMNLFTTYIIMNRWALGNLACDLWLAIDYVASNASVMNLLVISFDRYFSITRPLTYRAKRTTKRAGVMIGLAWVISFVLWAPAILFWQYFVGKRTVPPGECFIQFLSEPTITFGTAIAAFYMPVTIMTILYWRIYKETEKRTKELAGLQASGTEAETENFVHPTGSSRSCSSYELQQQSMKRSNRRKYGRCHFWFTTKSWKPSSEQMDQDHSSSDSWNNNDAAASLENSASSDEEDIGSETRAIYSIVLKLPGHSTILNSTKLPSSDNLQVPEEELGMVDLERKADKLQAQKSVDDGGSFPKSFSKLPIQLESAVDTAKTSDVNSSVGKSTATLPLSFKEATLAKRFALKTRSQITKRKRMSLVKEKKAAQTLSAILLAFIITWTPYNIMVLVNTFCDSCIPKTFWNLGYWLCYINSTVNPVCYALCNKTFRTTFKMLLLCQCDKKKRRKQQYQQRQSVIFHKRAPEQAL

Consider `O=C(c1ccc(SC(F)(F)F)cc1)N1CCN2C(=O)c3ccccc3C12c1ccc(Cl)cc1` (stereo unspecified), for which the pIC50 (commonly −log10 of the IC50, conventionally taken in molar units) in assay [1] is 5.52. Besides, the Activity in assay [2] was -9.2%.

`Cc1ccc(C(=O)N2CCN3C(=O)c4ccccc4C23c2ccc(F)cc2)cc1` (stereo unspecified): in assay [1], the pIC50 is < 5.00.

As for `O=C(c1ccc(OC(F)(F)F)cc1)N1CCN2C(=O)c3ccccc3C12c1ccccc1` (stereo unspecified), the pIC50 in assay [1] is 5.35. In addition, in assay [2], the Activity came to 0.2%.

`O=C(c1cc(F)cc(F)c1)N1CCN2C(=O)c3ccccc3C12c1ccccc1` (stereo unspecified): in assay [1], the pIC50 was 5.42. For the same compound, the Activity in assay [2] is -2.2%.

As to `Cc1ccc(C23c4ccccc4C(=O)N2CCN3C(=O)c2ccc(F)c(F)c2)cc1` (stereo unspecified), the pIC50 in assay [1] was 5.59. The Activity in assay [2] was -6.8%.

In the case of `O=C(c1cccc(C(F)(F)F)c1)N1CCN2C(=O)c3ccccc3C12c1ccccc1` (stereo unspecified), the pIC50 in assay [1] is 5.52. Further, the Activity in assay [2] is -0.7%.

On to `O=C(c1cccc(C(F)(F)F)c1)N1CCN2C(=O)c3ccccc3C12c1ccc(Cl)cc1` (stereo unspecified), for which, in assay [1], the negative logarithm of the IC50 (pIC50) is 5.31. Besides, the Activity in assay [2] was -7.2%.

Take `O=C(c1ccc(F)c(F)c1)N1CCN2C(=O)c3ccccc3C12c1ccc(F)cc1` (stereo unspecified): the pIC50 in assay [1] was < 5.00.

With `O=C(c1cc(F)cc(F)c1)N1CCN2C(=O)c3ccccc3C12c1ccc(F)cc1` (stereo unspecified), in assay [1], the pIC50 was < 5.00.

For the compound `O=C(c1cc(Cl)cc(Cl)c1)N1CCN2C(=O)c3ccccc3C12c1ccccc1` (stereo unspecified), the pIC50 in assay [1] was 5.24. Further, in assay [2], the Activity was 0%.

Regarding `O=C(c1ccc(SC(F)(F)F)cc1)N1CCN2C(=O)c3ccccc3C12c1ccc(F)cc1` (stereo unspecified), the negative-log IC50 (pIC50) in assay [1] was 5.89. The Activity in assay [2] is -0.2%.

Consider `O=C(c1cc(F)cc(F)c1)N1CCN2C(=O)c3ccccc3C12c1ccc(Cl)cc1` (stereo unspecified), for which, in assay [1], the pIC50 was 6.00. The Activity in assay [2] came to 2.8%.

As for `Cc1ccc(C(=O)N2CCN3C(=O)c4ccccc4C23c2ccc(C)cc2)cc1` (stereo unspecified), the pIC50 in assay [1] was < 5.00.

With `Cc1ccc(C23c4ccccc4C(=O)N2CCN3C(=O)c2ccc(SC(F)(F)F)cc2)cc1` (stereo unspecified), in assay [1], the negative-log IC50 (pIC50) was 5.39. The Activity in assay [2] turned out to be 4.1%.

As to `Cc1ccc(C23c4ccccc4C(=O)N2CCN3C(=O)c2ccc(C(F)(F)F)cc2)cc1` (stereo unspecified), the pIC50 in assay [1] was < 5.00.

With `O=C(c1ccc(F)cc1)N1CCN2C(=O)c3ccccc3C12c1ccccc1` (stereo unspecified), the pIC50 was 5.46 in assay [1]; 5.25 in assay [3]; < 4.52 in assay [4]; < 4.52 in assay [5]; < 4.52 in assay [6]; < 4.52 in assay [7]. In addition, the Activity in assay [2] is 41%.

Consider `O=C(c1ccc(C(F)(F)F)cc1)N1CCN2C(=O)c3ccccc3C12c1ccccc1` (stereo unspecified), for which the pIC50 in assay [1] was 5.71. Besides, the Activity in assay [2] was -2.4%.

For the compound `O=C(c1ccc(SC(F)(F)F)cc1)N1CCN2C(=O)c3ccccc3C12c1ccccc1` (stereo unspecified), the pIC50 in assay [1] was 5.86. Besides, the Activity in assay [2] stood at 0.5%.

Turning to `O=C(c1ccc(OC(F)(F)F)cc1)N1CCN2C(=O)c3ccccc3C12c1ccc(Cl)cc1` (stereo unspecified), the pIC50 in assay [1] was 5.64. Further, in assay [2], the Activity was -5.3%.

Consider `O=C(c1ccc(C(F)(F)F)cc1)N1CCN2C(=O)c3ccccc3C12c1ccc(F)cc1` (stereo unspecified), for which the pIC50 in assay [1] was < 5.00.

Consider `Cc1ccc(C23c4ccccc4C(=O)N2CCN3C(=O)c2cccc(C(F)(F)F)c2)cc1` (stereo unspecified), for which the pIC50 in assay [1] is < 5.00.

Regarding `O=C(c1ccc(OC(F)(F)F)cc1)N1CCN2C(=O)c3ccccc3C12c1ccc(F)cc1` (stereo unspecified), in assay [1], the negative-log IC50 (pIC50) was < 5.00.

On to `O=C(c1cccc(C(F)(F)F)c1)N1CCN2C(=O)c3ccccc3C12c1ccc(F)cc1` (stereo unspecified), for which the pIC50 in assay [1] is 5.68. Besides, the Activity in assay [2] is -2.4%.

As to `O=C(c1ccc(F)c(F)c1)N1CCN2C(=O)c3ccccc3C12c1ccc(Cl)cc1` (racemic), the pIC50 in assay [4], in assay [5], in assay [6] and in assay [7] was < 4.52 in each case. The Activity in assay [2] was found to be 0.1%.

For the compound `Cc1ccc(C(=O)N2CCN3C(=O)c4ccccc4C23c2ccc(Cl)cc2)cc1` (stereo unspecified), in assay [1], the pIC50 was 5.59. Further, the Activity in assay [2] is 0.1%.

On to `Cc1ccc(C23c4ccccc4C(=O)N2CCN3C(=O)c2ccc(OC(F)(F)F)cc2)cc1` (stereo unspecified), for which the pIC50 in assay [1] was 5.46. In addition, in assay [2], the Activity was -0.2%.

Consider `O=C(c1ccc(C(F)(F)F)cc1)N1CCN2C(=O)c3ccccc3C12c1ccc(Cl)cc1` (stereo unspecified), for which the pIC50 in assay [1] was 5.70. In assay [2], the Activity was found to be 0.7%.

Regarding `Cc1ccc(C23c4ccccc4C(=O)N2CCN3C(=O)c2cc(F)cc(F)c2)cc1` (stereo unspecified), the pIC50 in assay [1] is 5.64. Also, in assay [2], the Activity was -1.1%.
